In patent US9809598B2 (Merck Patent GmbH, priority 2014, dated 2017) one finds IC50 and EC50 data, which are given here for 24 compounds.

For one test, the target named is T1, TNKS1 (Homo sapiens, UniProt O95271).
T1 construct: GST-tagged Tnks-1 (1023-1327 aa, prepared in-house); made in house
Nature of the test: TNKS1 activity ELISA (autoparsylation assay). Format: biochemical. The settings on record: GST-tagged Tnks-1 (1023-1327 aa). The procedure:
(§1) Description of the TNKS1 and TNKS2 ELISA Assay
(§2) Biochemical Activity Testing of TNKS 1 and 2: Activity ELISA (Autoparsylation Assay)
(§3) For analysis of autoparsylation activity of TNKS 1 and 2 an activity ELISA iss performed: In the first step GST tagged TNKS is captured on a Glutathione coated plate. Then the activity assay with biotinylated NAD is performed in the absence/presence of the compounds. During the enzymatic reaction GST tagged TNKS transfers biotinylated ADP-ribose to itself from biotinylated NAD as co-substrate. For the detection streptavidin-HRP conjugate is added that binds to the biotinylated TNKS and is thereby captured to the plates. The amount of biotinylated resp. autoparsylated TNKS is detected with a luminescence substrate for HRP. The level of the luminescence signal correlats directly with the amount of autoparsylated TNKS and therefore with activity of TNKS.
(§4) The activity ELISA is performed in 384 well Glutathione coated microtiter plates (Express capture Glutathione coated plate, Biocat, Heidelberg, Germany). The plates are pre-equilibrated with PBS. […] The plates are washed 3 times with PBS-Tween-20. The wells are blocked by incubation at room temperature for 20 minutes with 50 μl blocking buffer (PBS, 0.05% Tween-20, 0.5% BSA). Afterwards the plates are washed 3 times with PBS-Tween-20. […] The reaction is stopped by 3 times washing with PBS-Tween-20. For the detection 50 μl of 20 ng/μl Streptavidin, HRP conjugate (MoBiTec, Göttingen, Germany) in PBS/0.05% Tween-20/0.01% BSA are added and the plates are incubated for 30 minutes at room temperature. After three times washing with PBS-Tween-20 50 μl of SuperSignal ELISA Femto Maximum sensitivity substrate solution (ThermoFisherScientific (Pierce), Bonn, Germany) are added. Following a 1 minute incubation at room temperature luminescence signals are measured with an Envision multimode reader (Perkin Elmer LAS Germany GmbH) at 700 nm. The full value used is the inhibitor-free reaction. […] The inhibitory values (IC50) are determined using either the program Symyx Assay Explorer® or Condosseo® from GeneData.
Background: An ELISA detects its analyte on a solid surface through an enzyme-linked reagent.

A further test deals with T2, TNKS2 (Homo sapiens, UniProt Q9H2K2).
T2 construct: GST-tagged Tnks-2 (873-1166 aa, prepared in-house); made in house
The experiment in a line: TNKS2 activity ELISA (autoparsylation assay). It counts as biochemical. As to conditions: GST-tagged Tnks-2 (873-1166 aa); read-out: IC50 [M] TNKS2 ELISA. As for the experimental part: as §1, §2, §3, §4

The subject of the next test is Tankyrases. The settings on record: read-out: EC50 [M] TNKS cellular assay; DLD1 cells, 24 hours, Axin2 increase.

Each structure is given as a SMILES string. Structures can show the parent of a compound that is named as a salt.

T2 sequence (Q9H2K2 873-1166): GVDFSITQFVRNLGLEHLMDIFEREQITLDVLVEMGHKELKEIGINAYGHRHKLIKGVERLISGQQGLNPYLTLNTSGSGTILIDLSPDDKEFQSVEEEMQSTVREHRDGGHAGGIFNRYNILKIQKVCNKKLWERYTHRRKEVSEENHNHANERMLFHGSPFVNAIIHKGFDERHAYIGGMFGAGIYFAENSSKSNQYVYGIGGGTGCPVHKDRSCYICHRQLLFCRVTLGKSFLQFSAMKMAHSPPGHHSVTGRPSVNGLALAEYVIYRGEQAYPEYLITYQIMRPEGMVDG
T1 sequence (O95271 1023-1327): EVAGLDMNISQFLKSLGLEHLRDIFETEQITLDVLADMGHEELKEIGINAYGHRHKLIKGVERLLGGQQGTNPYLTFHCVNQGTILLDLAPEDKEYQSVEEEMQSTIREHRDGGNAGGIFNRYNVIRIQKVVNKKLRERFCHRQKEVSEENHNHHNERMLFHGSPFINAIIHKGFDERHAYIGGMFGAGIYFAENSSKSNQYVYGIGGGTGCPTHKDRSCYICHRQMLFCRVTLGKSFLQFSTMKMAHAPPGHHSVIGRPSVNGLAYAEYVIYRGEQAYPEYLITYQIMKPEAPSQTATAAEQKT

With `COc1ccc(C(=O)C2CCN(C(=O)CCCc3cn4cccc4c(=O)[nH]3)CC2)cc1` [Compound C2, 3-{4-[4-(4-Methoxy-benzoyl)-piperidin-1-yl]-4-oxo-butyl}-2H-pyrrolo[1,2-a]-pyrazin-1-one], the half-maximal inhibitory concentration (IC50) – broadly, the concentration at which inhibition is half-maximal – on TNKS1 is 0.24 nM; at TNKS2, 1.4e-10 M. Further, in the test with Tankyrases, the EC50 (commonly the concentration needed to bring the measured effect to its halfway point) came out at 5e-10 M.

As to `COc1ccc(C(=O)C2CCN(C(=O)CCCc3cn4cccc4c(=O)[nH]3)CC2)cc1C` [Compound C4, 3-{4-[4-(4-Methoxy-3-methyl-benzoyl)-piperidin-1-yl]-4-oxo-butyl}-2H-pyrrolo[1,2-a]pyrazin-1-one], the values for the concentration for half-maximal inhibition (IC50) at TNKS1 and on TNKS2 were 0.14 nM and 1.5e-10 M, respectively. Besides, the EC50 in the test on Tankyrases came out at 3.4e-10 M.

Turning to `COc1ccc(C(=O)C2CCN(C(=O)CCCc3cn4c(F)ccc4c(=O)[nH]3)CC2)cc1` [Compound C9, 6-Fluoro-3-{4-[4-(4-methoxy-benzoyl)-piperidin-1-yl]-4-oxo-butyl}-2H-pyrrolo[1,2-a]pyrazin-1-one], the values for the half-inhibitory concentration (IC50) against TNKS1 and on TNKS2 were 0.2 nM and 1.3e-10 M, respectively. The EC50 in the test with Tankyrases is 7.2e-10 M.

In the case of `COc1ccc(C(=O)C2CCN(C(=O)CCCc3cn4cncc4c(=O)[nH]3)CC2)cc1` [Compound C10, 6-{4-[4-(4-Methoxy-benzoyl)-piperidin-1-yl]-4-oxo-butyl}-7H-imidazo[1,5-a]-pyrazin-8-one], the IC50 on TNKS1 was 0.32 nM; on TNKS2, 1.3e-10 M. Also, the EC50 in the test with Tankyrases was determined as 6.7e-09 M.

Turning to `COc1ccc(C(=O)C2CCN(C(=O)CCCc3cn4nc(C)cc4c(=O)[nH]3)CC2)cc1` [Compound C12, 6-{4-[4-(4-Methoxy-benzoyl)-piperidin-1-yl]-4-oxo-butyl}-2-methyl-5H-pyrazolo[1,5-a]pyrazin-4-one], the results for the IC50 against TNKS1 and on TNKS2 were 0.13 nM and 1.4e-10 M, respectively. In the test on Tankyrases, the concentration for a half-maximal effect (EC50) came out at 4.9e-10 M.

Consider `COc1ccc(C(=O)C2CCN(C(=O)CCCc3cn4ccnc4c(=O)[nH]3)CC2)cc1` [Compound C13, 6-{4-[4-(4-Methoxy-benzoyl)-piperidin-1-yl]-4-oxo-butyl}-7H-imidazo[1,2-a]-pyrazin-8-one], for which the IC50 is 1.2 nM on TNKS1 and 7.4e-10 M at TNKS2. Besides, in the test on Tankyrases, the 50% effective concentration (EC50) is 4.1e-07 M.

Compound `COc1ccc(C(=O)C2CCN(C(=O)CCCc3nc4c(C)scc4c(=O)[nH]3)CC2)cn1` [Compound C114] came in with an IC50 at TNKS1 of 0.68 nM.

`Cn1cc(C(=O)C2CCN(C(=O)CCCc3nn4cccc4c(=O)[nH]3)CC2)cn1` [Compound C146, 2-{4-[4-(1-Methyl-1H-pyrazole-4-carbonyl)-piperidin-1-yl]-4-oxo-butyl}-3H-pyrrolo[2,1-f][1,2,4]triazin-4-one]: the IC50 came out at 2.2 nM against TNKS1 and 1.4e-09 M on TNKS2. Also, the concentration for a half-maximal effect (EC50) in the test with Tankyrases is 8.7e-08 M.

`CC(C)(O)c1ccc(C(=O)C2CCN(C(=O)CCCc3nc4c(c(=O)[nH]3)COCC4)CC2)cc1` [Compound C200, 2-(4-{4-[4-(1-Hydroxy-1-methyl-ethyl)-benzoyl]-piperidin-1-yl}-4-oxo-butyl)-3,5,7,8-tetrahydro-pyrano[4,3-d]pyrimidin-4-one]: the IC50 on TNKS1 was determined as 170 nM; at TNKS2 it was 2.2e-08 M. The EC50 in the test with Tankyrases came to 3.7e-06 M.

As for `Cn1cc(C(=O)C2CCN(C(=O)CCCc3cn4cncc4c(=O)[nH]3)CC2)cn1` [Compound C207, 6-{4-[4-(1-Methylpyrazole-4-carbonyl)-1-piperidyl]-4-oxo-butyl}-7H-imidazo[1,5-a]pyrazin-8-one], the IC50 amounted to 7.1 nM against TNKS1 and 2.8e-09 M on TNKS2. In addition, the EC50 in the test on Tankyrases stood at 1.1e-06 M.

With `CC(C)n1cc(C(=O)C2CCN(C(=O)CCCc3nc4c(cnn4C)c(=O)[nH]3)CC2)cn1` [Compound C218, 6-{4-[4-(1-Isopropyl-1H-pyrazole-4-carbonyl)-piperidin-1-yl]-4-oxo-butyl}-1-methyl-1,5-dihydro-pyrazolo[3,4-d]pyrimidin-4-one], the IC50 on TNKS1 stood at 2 nM; on TNKS2 it was 8.5e-10 M. The EC50 in the test on Tankyrases was found to be 1.4e-07 M.

Take `CCn1cc(C(=O)C2CCN(C(=O)CCCc3nc4c(c(=O)[nH]3)COCC4)CC2)cn1` [Compound C228, 2-{4-[4-(1-Ethyl-1H-pyrazole-4-carbonyl)-piperidin-1-yl]-4-oxo-butyl}-3,5,7,8-tetrahydro-pyrano[4,3-d]pyrimidin-4-one]: the figures for the IC50 against TNKS1 and at TNKS2 were 14 nM and 2.2e-09 M, respectively. The EC50 with Tankyrases amounted to 2.9e-06 M.

Turning to `COc1ccc(C(=O)C2CCN(C(=O)CCCc3nc(C)c(C)c(=O)[nH]3)CC2)cn1` [Compound C241, 2-{4-[4-(6-Methoxy-pyridine-3-carbonyl)-piperidin-1-yl]-4-oxo-butyl}-5,6-dimethyl-3H-pyrimidin-4-one], the concentration for half-maximal inhibition (IC50) on TNKS1 turned out to be 11 nM; on TNKS2, 4.9e-09 M. In addition, the EC50 in the test on Tankyrases was 3.5e-08 M.

For `Cc1nc(CCCC(=O)N2CCC(C(=O)c3cnn(C)c3)CC2)[nH]c(=O)c1C` [Compound C242, 5,6-Dimethyl-2-{4-[4-(1-methyl-1H-pyrazole-4-carbonyl)-piperidin-1-yl]-4-oxo-butyl}-3H-pyrimidin-4-one], the IC50 against TNKS1 amounted to 24 nM; on TNKS2, 7.1e-09 M. Besides, the concentration for a half-maximal effect (EC50) with Tankyrases amounted to 8.8e-07 M.

As for `COc1ccc(C(=O)C2CCN(C(=O)CCCc3nncc4ccccc34)CC2)cc1` [Compound C250, 1-[4-(4-Methoxy-benzoyl)-piperidin-1-yl]-4-phthalazin-1-yl-butan-1-one], the IC50 turned out to be 2.8 nM at TNKS1 and 1.1e-09 M on TNKS2. For the same compound, the EC50 with Tankyrases worked out at 4.6e-08 M.

As for `CCc1cc(=O)[nH]c(CCCC(=O)N2CCC(C(=O)c3ccc(OC)cc3)CC2)n1` [Compound C251, 6-Ethyl-2-{4-[4-(4-methoxy-benzoyl)-piperidin-1-yl]-4-oxo-butyl}-3H-pyrimidin-4-one], the 50% inhibitory concentration (IC50) against TNKS1 worked out at 7.8 nM; at TNKS2, 2.9e-09 M. Besides, the concentration giving a half-maximal response (EC50) in the test with Tankyrases came to 7e-08 M.

Turning to `CCc1cc(=O)[nH]c(CCCC(=O)N2CCC(C(=O)c3ccc(F)cc3)CC2)n1` [Compound C252, 6-Ethyl-2-{4-[4-(4-fluoro-benzoyl)-piperidin-1-yl]-4-oxo-butyl}-3H-pyrimidin-4-one], the IC50 was 35 nM against TNKS1 and 1.7e-08 M on TNKS2.

As to `CCc1cc(=O)[nH]c(CCCC(=O)N2CCC(C(=O)c3ccc(OC)nc3)CC2)n1` [Compound C253, 6-Ethyl-2-{4-[4-(6-methoxy-pyridine-3-carbonyl)-piperidin-1-yl]-4-oxo-butyl}-3H-pyrimidin-4-one], the values for the half-maximal inhibitory concentration (IC50) at TNKS1 and at TNKS2 were 31 nM and 1.9e-08 M, respectively. Further, the concentration giving a half-maximal response (EC50) in the test on Tankyrases was determined as 7e-07 M.

On to `COc1ccc(C(=O)C2CCN(C(=O)CCCc3nc(C(C)C)cc(=O)[nH]3)CC2)cc1` [Compound C254, 6-Isopropyl-2-{4-[4-(4-methoxy-benzoyl)-piperidin-1-yl]-4-oxo-butyl}-3H-pyrimidin-4-one trifluoroacetate], for which the 50% inhibitory concentration (IC50) on TNKS1 was 28 nM; on TNKS2, 1.5e-08 M. For the same compound, the 50% effective concentration (EC50) in the test with Tankyrases was determined as 2.6e-07 M.

For `CC(C)c1cc(=O)[nH]c(CCCC(=O)N2CCC(C(=O)c3ccc(F)cc3)CC2)n1` [Compound C255, 2-{4-[4-(4-Fluorobenzoyl)-1-piperidyl]-4-oxo-butyl}-4-isopropyl-1H-pyrimidin-6-one trifluoroacetate], the IC50 came to 110 nM on TNKS1 and 4.9e-08 M at TNKS2. For the same compound, in the test with Tankyrases, the concentration for a half-maximal effect (EC50) came to 2.7e-06 M.

In the case of `COc1ccc(C(=O)C2CCN(C(=O)CCCc3noc4ccccc34)CC2)cc1` [Compound C258, 4-(1,2-Benzoxazol-3-yl)-1-[4-(4-methoxybenzoyl)-1-piperidyl]butan-1-one], the IC50 against TNKS1 was found to be 150 nM; on TNKS2 it was 9.5e-08 M.

For `O=C(c1ccc(F)cc1)C1CCN(C(=O)CCCc2noc3ccccc23)CC1` [Compound C259, 4-(1,2-Benzoxazol-3-yl)-1-[4-(4-fluorobenzoyl)-1-piperidyl]butan-1-one], the IC50 turned out to be 730 nM at TNKS1 and 4.6e-07 M at TNKS2.

As for `O=C(c1ccc(F)c(F)c1)C1CCN(C(=O)CCCc2nc3c(c(=O)[nH]2)COCC3)CC1` [Compound C262, 2-{4-[4-(3,4-Difluorobenzoyl)-1-piperidyl]-4-oxo-butyl}-3,5,7,8-tetrahydro-pyrano[4,3-d]pyrimidin-4-one], the figures for the IC50 on TNKS1 and on TNKS2 were 7.1 nM and 1.2e-09 M, respectively.

As to `CC(F)(F)c1ccc(C(=O)C2CCN(C(=O)CCCc3nc4c(c(=O)[nH]3)COCC4)CC2)cc1` [Compound C263, 2-{4-{4-[4-(1,1-Difluoroethyl)benzoyl]-1-piperidyl}-4-oxo-butyl}-3,5,7,8-tetra-hydropyrano[4,3-d]pyrimidin-4-one], the 50% inhibitory concentration (IC50) on TNKS1 turned out to be 5.1 nM; at TNKS2 it was 3.3e-10 M.
